From patent US20120258170A1, “PHARMACEUTICAL CO-CRYSTALS OF QUERCETIN” (Nutracryst Therapeutics Private Limited, priority 2009, published 2012)
“Also recorded” adds a separate entry of the source. Where a name gives a salt, the structure may show the parent alone.

Tests used:
[1] = test system: AMP-activated protein kinase (AMPK); settings: HepG2 cells; cited from earlier work
[2] = Chronic effect on body weight in db/db mice; assay type: in vivo; settings: Mean ± SEM
Method: (§1) Compounds and Vehicle: All test-compounds were formulated in tween CMC (10% of 2.5% tween 80+90% of 0.25% CMC) and prepared daily about 1 hr before administration. Animals were dosed for 21 days through oral gavage at dose volume of 10 ml/kg body weight.
(§2) Animals were dosed daily at around 10 AM to 11 AM with corresponding test compounds/vehicle at a volume of 10 ml/kg of body weight. Body weight, water intake and food intake was measured daily. After 14 days treatment plasma profile (PG, TG & TC) was measured in 4 hrs fasted animals. On that day animals were dosed post bleeding after keeping feed at 4 PM. After 21 days treatment plasma profile (PG, TG & TC) was measured in 4 hrs fasted animals. After bleeding, animals were administered with test compounds/vehicle and plasma glucose was measured 3 hrs post dosing with Glucometer. Immediately animals were provided with feed.
(§3) Statistics were applied using One-Way ANOVA followed by Dunnett's test using sigma stat software.

db/db mice [3] = experiment: Chronic effect (21 days) on plasma glucose 3 hrs post dosing in db/db mice; assay type: in vivo
Method: (§4) Db/db mice were acclimatized to dosing and exposed to tail cut and r.o.p bleeding. Animals were grouped based on plasma glucose, triglyceride and cholesterol values. Acute effect of test compound on plasma glucose levels determined 3 hrs post dosing followed by administration of test compound for 21 days. After 14 days treatment, 4 hrs fasting plasma glucose levels were measured. After 21 days treatment, 4 hrs fasting plasma glucose levels were measured followed by test compound administration and measurement of plasma glucose levels 3 hrs post dosing.
(§5) Kits: Plasma glucose, cholesterol and triglyceride were measured using Dade Behring auto analyzer. Plasma insulin values measured using Rat/mouse insulin ELISA kit (Millipore, lot no 16006280). Tail cut method plasma glucose values measured using Contour TS glucometer strips (Lot WK8MD3E32A).
as §1, §2
(§6) The percent reduction in plasma profile parameters were calculated using the formula 1−(tt/tc)/bt/bc)×100; where tt: test day treated group mean value of the parameter; tc: test day control group mean value of the parameter; bc: Basal Control group mean value; bt: Basal treated group mean value.
as §3

db/db mice [4] = experiment: Chronic effect on plasma profile (PG, TC, TG), 4 hrs fasted, before dosing, in db/db mice; assay type: in vivo
Method: as §4, §5, §1, §2
(§7) Blood samples from r.o.p bleeding were collected in micro centrifuge tubes containing 5 ul of EDTA Na ([…]). Plasma separated by centrifuging blood samples at 6000 rpm at 40 C for 5 minutes. Plasma glucose, total cholesterol and triglyceride were measured using Dade Bhering auto analyser. Plasma insulin was measured (in duplicate samples), using Millipore mouse/rat insulin ELISA kit.
as §6, §3

db/db mice [5] = experiment: Chronic effect on plasma insulin levels in db/db mice; assay type: in vivo; parameters: % Reduction in plasma insulin / % Reduction@ in plasma insulin: concentration or dose not given beside the values
Method: as §5, §1, §2, §7, §6, §3

db/db mice [6] = experiment: Acute effect of test compounds on plasma glucose levels in db/db mice; assay type: in vivo
Method: as §4, §5, §1
On the day of initiating study animals were fasted for 4 hrs and plasma glucose was measured with Glucometer by tail cut method. Animals were dosed with test compound/vehicle according to their body weight and 3 hrs post dosing plasma glucose levels were measured with Glucometer Immediately animals were provided with measured amount of feed.
Acute effect percent reduction in PG was calculated for each animal using the formula
{(0 hr PG−test hr PG)/0 hr PG}×100
as §3

[7] = target: angiotensin-converting enzyme (Homo sapiens, UniProt P12821); settings: cited from earlier work
HeLa cells = settings: Quercetin pretreatment; cited from earlier work
[8] = target: human lens aldose reductase (Homo sapiens, UniProt P15121); settings: cited from earlier work
[9] = P<0.05; cited from earlier work
[10] = 14 days 300 mg/kg once daily per oral, 4 hr fasting, pre dosing
[11] = 14 days 300 mg/kg once daily, adjusted for control and basal
[12] = 21 days 300 mg/kg once daily per oral, 4 hr fasting, predosing
[13] = 21 days 300 mg/kg once daily, post 4 hrs fasting, without dosing on the day
[14] = basal, 4 hrs fasted, before treatment, Mean ± SEM

angiotensin-converting enzyme, sequence (P12821 30-1306, species assumed): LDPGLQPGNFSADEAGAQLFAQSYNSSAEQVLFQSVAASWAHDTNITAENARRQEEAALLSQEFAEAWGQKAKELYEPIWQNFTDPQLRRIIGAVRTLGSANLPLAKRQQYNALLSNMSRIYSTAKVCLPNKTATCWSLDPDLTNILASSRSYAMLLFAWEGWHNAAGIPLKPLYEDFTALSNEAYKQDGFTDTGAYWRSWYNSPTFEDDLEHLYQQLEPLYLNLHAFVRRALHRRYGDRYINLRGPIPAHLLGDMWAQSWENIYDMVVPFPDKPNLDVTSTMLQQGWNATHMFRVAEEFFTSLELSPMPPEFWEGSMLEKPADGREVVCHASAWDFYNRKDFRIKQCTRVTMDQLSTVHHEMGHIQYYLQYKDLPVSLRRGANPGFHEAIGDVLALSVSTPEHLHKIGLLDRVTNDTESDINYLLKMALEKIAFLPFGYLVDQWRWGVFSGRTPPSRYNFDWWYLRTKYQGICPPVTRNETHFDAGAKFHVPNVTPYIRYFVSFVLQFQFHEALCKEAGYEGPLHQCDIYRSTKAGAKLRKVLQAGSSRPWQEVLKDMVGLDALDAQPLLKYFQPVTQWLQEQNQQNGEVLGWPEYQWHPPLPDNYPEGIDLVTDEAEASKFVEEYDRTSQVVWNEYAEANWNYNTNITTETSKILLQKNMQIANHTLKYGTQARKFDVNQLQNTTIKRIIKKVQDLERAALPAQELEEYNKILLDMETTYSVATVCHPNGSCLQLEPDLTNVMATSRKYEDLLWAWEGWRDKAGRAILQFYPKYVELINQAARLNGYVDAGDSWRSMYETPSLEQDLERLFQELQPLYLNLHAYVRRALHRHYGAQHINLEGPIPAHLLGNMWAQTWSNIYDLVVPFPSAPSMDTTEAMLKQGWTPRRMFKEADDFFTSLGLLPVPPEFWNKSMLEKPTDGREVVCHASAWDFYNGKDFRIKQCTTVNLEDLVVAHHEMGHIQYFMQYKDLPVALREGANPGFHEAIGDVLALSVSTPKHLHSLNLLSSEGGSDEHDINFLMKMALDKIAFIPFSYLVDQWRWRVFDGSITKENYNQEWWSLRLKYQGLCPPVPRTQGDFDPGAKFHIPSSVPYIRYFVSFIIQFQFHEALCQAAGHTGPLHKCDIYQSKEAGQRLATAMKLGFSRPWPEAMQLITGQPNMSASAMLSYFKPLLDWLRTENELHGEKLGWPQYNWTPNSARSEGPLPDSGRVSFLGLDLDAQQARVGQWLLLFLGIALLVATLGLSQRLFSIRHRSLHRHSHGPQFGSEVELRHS

Oc1ccc(C=Cc2cc(O)cc(O)c2)cc1 [resveratrol]
AMPK phosphorylation [1]: increased

CN(C)C(=N)N=C(N)N [ILB-MCO-0906Q, Metformin hydrochloride]
Final day Body weight ([2]; after 21 days 300 mg/kg once daily): 45.1 ± 0.6 g | % Increase in body weight ([2]; basal to final day): 14.5 ± 0.9% | Basal Body weight ([2]; basal): 38.5 ± 0.5 g | plasma glucose levels 3 hrs post dosing after 21 days treatment followed by administration on day 21 (in words) (db/db mice [3]; 300 mg/kg, hydrochloride): significant lowering; also recorded: significant reduction | % Red PG, 21th day 3 hr post dosing (db/db mice [3]; 21 days 300 mg/kg once daily, then dose, 3 hrs post dosing): 44% | 21th day 3 hr post dosing PG (db/db mice [3]; 21 days 300 mg/kg once daily, then dose, 3 hrs post dosing, Mean ± SEM): 200 ± 31 mg/dL | 14th day PG (db/db mice [4]; [10]): 443.33 ± 40.27 mg/dL | 14th day TC (db/db mice [4]; [10]): 144.51 ± 4.61 mg/dL | 14th day TG (db/db mice [4]; [10]): 114.11 ± 4.76 mg/dL | % Red PG, 14th day (db/db mice [4]; [11]): 3% | % Red TC, 14th day (db/db mice [4]; [11]): 6% | % Red TG, 14th day (db/db mice [4]; [11]): 17% | 21st day PG (db/db mice [4]; [12]): 400.80 ± 42.77 mg/dL | 21st day TC (db/db mice [4]; [12]): 157.86 ± 8.76 mg/dL | 21st day TG (db/db mice [4]; [12]): 127.00 ± 5.65 mg/dL | % Red PG, 21st day (db/db mice [4]; 21 days 300 mg/kg once daily, adjusted for control and basal): 7% | % Red TC (plasma cholesterol), 21st day (db/db mice [4]; [13]): 11% | % Red TG (plasma triglyceride), 21st day (db/db mice [4]; [13]): 28% | Basal PG (db/db mice [4]; [14]): 402.43 ± 26.13 mg/dL | Basal TC (db/db mice [4]; [14]): 155.90 ± 5.08 mg/dL | Basal TG (db/db mice [4]; [14]): 136.10 ± 5.39 mg/dL | 4 hrs fasting plasma glucose levels after 21 days treatment (in words) (db/db mice [4]; chronic treatment 21 days, 300 mg/kg): did not show significant reduction | % Reduction@ in plasma insulin (db/db mice [5]; 21th day, calculated after adjusting for control group change): 28% | 21th day insulin (db/db mice [5]; 21 days 300 mg/kg once daily, 4 hr fasting, predosing): 3.82 ± 0.72 ng/mL | % Reduction in plasma insulin (db/db mice [5]; basal vs 21th day, Mean ± SEM): 15.32 ± 7.16% | Basal insulin (db/db mice [5]; basal, before treatment, Mean ± SEM): 4.42 ± 0.63 ng/mL | % Reduction in plasma glucose (acute) (db/db mice [6]; 0 hr vs 3 hr post single dose 300 mg/kg per oral, Mean ± SEM): 52 ± 4 % | 3 Hr plasma glucose (db/db mice [6]; 3 hrs post single dose 300 mg/kg per oral, Mean ± SEM): 181 ± 25 mg/dL | 0 Hr plasma glucose (db/db mice [6]; 4 hrs fasted, before dosing, 300 mg/kg per oral group, Mean ± SEM): 373 ± 43 mg/dL | plasma glucose levels 3 hrs post dosing with single dose (in words) (db/db mice [6]; acute administration, 300 mg/kg, vs control group, hydrochloride, 300 mg/kg): Significant lowering; also recorded: significant reduction

O=c1c(O)c(-c2ccc(O)c(O)c2)oc2cc(O)cc(O)c12 [Quercetin]
AMPK phosphorylation [1]: increased | hypotensive effect of bradykinin ([7]; pretreatment 88.7 μmol/kg p.o., 45 min, 14.7 μmol/kg i.v., 5 min, bradykinin 10 nmol/kg i.v.): significantly potentiated | hypertensive response to angiotensin I ([7]; same pretreatment, angiotensin I 0.1 nmol/kg iv): significantly reduced | cisplatin-induced apoptosis in HeLa cells (HeLa cells): sensitizes | inhibition of human lens aldose reductase [8]: strong inhibitor | mRNA expression of PGC-1alpha and SIRT1, mtDNA and cytochrome C concentration [9]: increased | maximal endurance capacity and voluntary wheel running activity [9]: increase
